Test results from patent publication US8772480B2, “Inhibitors of PI3 kinase and/or mTOR” (priority 2009, dated 2014).

Columns and labels:
[1] = molecular target: human mutant B-raf (HuBraf V600E) (Homo sapiens (Human), UniProt P15056, V600E); conditions: at 10 μM compound concentration; POC = 100 − percent inhibition
Description: B-Raf Homogenous Time Resolved Fluorescence (HTRF) Kinase Assay
The final concentration of the kinase reaction buffer is 50 mM Tris-HCl pH 7.5, 10 mM MgCl2, 0.5% glucose, 0.5 mM DTT, 0.01% BSA. […] The detection reaction proceeds for one hour and is read on a RubyStar (BMG Labtech, Durham, N.C.) counter. IC50s for the test compounds are generated using Excel-XLfit software. For single concentration percent of control (POC;=100−percent inhibition) assays, compounds were assayed as above at a single test concentration of 10 M test compound.

[2] = molecular target: ProfilerPro Kinase Selectivity Assay Kit kinases (Homo sapiens, UniProt P11362); assay type: biochemical; conditions: FGFR1; 1 μM compound concentration
Description: (§1) Compounds were profiled using a LabChip® EZ Reader II platform and a ProfilerPro Kinase Selectivity Assay Kit (Caliper Lifesciences Inc., Hopkinton, Mass.). Compounds were tested at a concentration of 1 M in duplicate, with mean data reported as percent of control (POC).

[3] = molecular target: ProfilerPro Kinase Selectivity Assay Kit kinases (Homo sapiens, UniProt P43405); assay type: biochemical; conditions: SYK; 1 μM compound concentration
Description: as §1

[4] = molecular target: ProfilerPro Kinase Selectivity Assay Kit kinases (Homo sapiens, UniProt Q05513); assay type: biochemical; conditions: PKC zeta; 1 μM compound concentration
Description: as §1

[5] = molecular target: ProfilerPro Kinase Selectivity Assay Kit kinases (Homo sapiens, UniProt O75582); assay type: biochemical; conditions: MSK1; 1 μM compound concentration
Description: as §1

[6] = molecular target: ProfilerPro Kinase Selectivity Assay Kit kinases (Homo sapiens, UniProt P17612); assay type: biochemical; conditions: PKA alpha; 1 μM compound concentration
Description: as §1

[7] = molecular target: ProfilerPro Kinase Selectivity Assay Kit kinases (Homo sapiens, UniProt O14965); assay type: biochemical; conditions: AURORA A; 1 μM compound concentration
Description: as §1

[8] = molecular target: ProfilerPro Kinase Selectivity Assay Kit kinases (Homo sapiens, UniProt P04049); assay type: biochemical; conditions: cRAF; 1 μM compound concentration
Description: as §1

[9] = molecular target: ProfilerPro Kinase Selectivity Assay Kit kinases (Homo sapiens, UniProt Q9BZL6); assay type: biochemical; conditions: PKD2; 1 μM compound concentration
Description: as §1

[10] = molecular target: ProfilerPro Kinase Selectivity Assay Kit kinases (Homo sapiens, UniProt O95819); assay type: biochemical; conditions: HGK; 1 μM compound concentration
Description: as §1

[11] = molecular target: ProfilerPro Kinase Selectivity Assay Kit kinases (Homo sapiens, UniProt P27361); assay type: biochemical; conditions: ERK1; 1 μM compound concentration
Description: as §1

[12] = molecular target: ProfilerPro Kinase Selectivity Assay Kit kinases (Homo sapiens, UniProt P06239); assay type: biochemical; conditions: LCK; 1 μM compound concentration
Description: as §1

[13] = molecular target: ProfilerPro Kinase Selectivity Assay Kit kinases (Homo sapiens, UniProt P35968); assay type: biochemical; conditions: KDR; 1 μM compound concentration
Description: as §1

[14] = molecular target: ProfilerPro Kinase Selectivity Assay Kit kinases (Homo sapiens, UniProt P12931); assay type: biochemical; conditions: SRC; 1 μM compound concentration
Description: as §1

[15] = molecular target: ProfilerPro Kinase Selectivity Assay Kit kinases (Homo sapiens, UniProt P06241); assay type: biochemical; conditions: FYN; 1 μM compound concentration
Description: as §1

[16] = molecular target: ProfilerPro Kinase Selectivity Assay Kit kinases (Homo sapiens, UniProt P07948); assay type: biochemical; conditions: LYN; 1 μM compound concentration
Description: as §1

[17] = molecular target: ProfilerPro Kinase Selectivity Assay Kit kinases (Homo sapiens, UniProt Q9P0L2); assay type: biochemical; conditions: MARK1; 1 μM compound concentration
Description: as §1

[18] = molecular target: ProfilerPro Kinase Selectivity Assay Kit kinases (Homo sapiens, UniProt P23443); assay type: biochemical; conditions: p70S6K; 1 μM compound concentration
Description: as §1

[19] = molecular target: ProfilerPro Kinase Selectivity Assay Kit kinases (Homo sapiens, UniProt Q06187); assay type: biochemical; conditions: BTK; 1 μM compound concentration
Description: as §1

[20] = molecular target: ProfilerPro Kinase Selectivity Assay Kit kinases (Homo sapiens, UniProt P28482); assay type: biochemical; conditions: ERK2; 1 μM compound concentration
Description: as §1

[21] = molecular target: ProfilerPro Kinase Selectivity Assay Kit kinases (Homo sapiens, UniProt Q13177); assay type: biochemical; conditions: PAK2; 1 μM compound concentration
Description: as §1

[22] = molecular target: ProfilerPro Kinase Selectivity Assay Kit kinases (Homo sapiens, UniProt Q9P1W9); assay type: biochemical; conditions: PIM2; 1 μM compound concentration
Description: as §1

[23] = molecular target: ProfilerPro Kinase Selectivity Assay Kit kinases (Homo sapiens, UniProt P24941); assay type: biochemical; conditions: CDK2; 1 μM compound concentration
Description: as §1

[24] = molecular target: ProfilerPro Kinase Selectivity Assay Kit kinases (Homo sapiens, UniProt O00141); assay type: biochemical; conditions: SGK1; 1 μM compound concentration
Description: as §1

[25] = molecular target: ProfilerPro Kinase Selectivity Assay Kit kinases (Homo sapiens, UniProt O96017); assay type: biochemical; conditions: CHK2; 1 μM compound concentration
Description: as §1

[26] = molecular target: ProfilerPro Kinase Selectivity Assay Kit kinases (Homo sapiens, UniProt P31749); assay type: biochemical; conditions: AKT1; 1 μM compound concentration
Description: as §1

[27] = molecular target: ProfilerPro Kinase Selectivity Assay Kit kinases (Homo sapiens, UniProt P36888); assay type: biochemical; conditions: FLT3; 1 μM compound concentration
Description: as §1

[28] = molecular target: ProfilerPro Kinase Selectivity Assay Kit kinases (Homo sapiens, UniProt P00519); assay type: biochemical; conditions: ABL; 1 μM compound concentration
Description: as §1

[29] = molecular target: ProfilerPro Kinase Selectivity Assay Kit kinases (Homo sapiens, UniProt O14757); assay type: biochemical; conditions: CHK1; 1 μM compound concentration
Description: as §1

[30] = molecular target: ProfilerPro Kinase Selectivity Assay Kit kinases (Homo sapiens, UniProt P08069); assay type: biochemical; conditions: IGF1R; 1 μM compound concentration
Description: as §1

[31] = molecular target: ProfilerPro Kinase Selectivity Assay Kit kinases (Homo sapiens, UniProt Q13976); assay type: biochemical; conditions: PKGa2; 1 μM compound concentration
ProfilerPro Kinase Selectivity Assay Kit kinases (Homo sapiens, UniProt Q13976), sequence (Q13976 2-671 limits assumed): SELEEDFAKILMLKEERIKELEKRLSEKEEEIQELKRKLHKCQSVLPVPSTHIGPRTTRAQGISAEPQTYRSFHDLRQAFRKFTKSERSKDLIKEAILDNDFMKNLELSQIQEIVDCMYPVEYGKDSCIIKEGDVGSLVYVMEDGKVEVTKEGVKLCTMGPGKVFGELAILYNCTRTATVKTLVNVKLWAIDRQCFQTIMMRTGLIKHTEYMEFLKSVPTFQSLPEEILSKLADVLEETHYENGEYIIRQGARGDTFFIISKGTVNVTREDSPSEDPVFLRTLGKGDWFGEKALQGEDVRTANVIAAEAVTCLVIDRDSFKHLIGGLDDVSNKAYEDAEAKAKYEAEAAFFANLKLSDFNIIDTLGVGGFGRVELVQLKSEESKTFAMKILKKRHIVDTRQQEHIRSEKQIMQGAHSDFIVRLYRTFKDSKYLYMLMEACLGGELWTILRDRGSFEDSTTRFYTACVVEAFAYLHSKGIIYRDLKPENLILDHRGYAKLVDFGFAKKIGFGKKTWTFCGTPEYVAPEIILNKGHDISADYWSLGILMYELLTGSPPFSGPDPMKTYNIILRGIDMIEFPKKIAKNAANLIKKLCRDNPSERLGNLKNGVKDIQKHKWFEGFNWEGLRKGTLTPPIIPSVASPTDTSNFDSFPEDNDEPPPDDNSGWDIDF
Description: as §1

ProfilerPro Kinase Selectivity Assay Kit kinases (Homo sapiens, UniProt O95819), sequence (O95819 2-1239 limits assumed): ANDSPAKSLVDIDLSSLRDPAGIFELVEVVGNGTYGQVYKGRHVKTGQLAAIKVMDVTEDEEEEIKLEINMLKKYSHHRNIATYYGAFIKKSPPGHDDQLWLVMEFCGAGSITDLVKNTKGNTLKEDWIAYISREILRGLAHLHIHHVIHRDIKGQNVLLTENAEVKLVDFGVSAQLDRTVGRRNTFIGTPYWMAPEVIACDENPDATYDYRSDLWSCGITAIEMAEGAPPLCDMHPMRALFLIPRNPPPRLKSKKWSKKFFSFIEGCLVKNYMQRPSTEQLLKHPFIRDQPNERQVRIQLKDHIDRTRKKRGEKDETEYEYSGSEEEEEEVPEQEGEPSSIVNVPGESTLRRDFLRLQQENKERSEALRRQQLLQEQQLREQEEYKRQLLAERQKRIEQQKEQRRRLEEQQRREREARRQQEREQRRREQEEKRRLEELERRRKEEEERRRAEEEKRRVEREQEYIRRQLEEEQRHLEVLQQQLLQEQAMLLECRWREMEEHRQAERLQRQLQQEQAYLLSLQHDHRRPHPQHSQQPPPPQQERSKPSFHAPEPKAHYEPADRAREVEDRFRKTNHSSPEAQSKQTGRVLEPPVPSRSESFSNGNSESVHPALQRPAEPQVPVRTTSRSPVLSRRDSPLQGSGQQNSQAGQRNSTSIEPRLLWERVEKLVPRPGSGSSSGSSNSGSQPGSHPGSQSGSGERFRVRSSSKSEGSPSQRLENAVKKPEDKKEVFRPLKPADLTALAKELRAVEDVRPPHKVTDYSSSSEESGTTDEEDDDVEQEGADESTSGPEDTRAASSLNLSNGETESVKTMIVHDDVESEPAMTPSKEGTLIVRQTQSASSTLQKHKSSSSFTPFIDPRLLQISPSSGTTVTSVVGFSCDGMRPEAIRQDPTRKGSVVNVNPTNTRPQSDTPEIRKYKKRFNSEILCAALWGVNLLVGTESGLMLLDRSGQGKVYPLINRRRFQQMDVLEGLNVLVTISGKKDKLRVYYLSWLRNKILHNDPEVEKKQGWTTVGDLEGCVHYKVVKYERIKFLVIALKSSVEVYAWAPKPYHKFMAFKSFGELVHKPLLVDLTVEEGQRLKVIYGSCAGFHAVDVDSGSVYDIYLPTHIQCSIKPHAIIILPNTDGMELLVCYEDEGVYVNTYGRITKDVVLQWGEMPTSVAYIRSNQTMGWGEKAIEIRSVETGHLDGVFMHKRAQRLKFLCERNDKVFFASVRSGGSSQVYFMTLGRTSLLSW
ProfilerPro Kinase Selectivity Assay Kit kinases (Homo sapiens, UniProt P35968), sequence (P35968 20-1356 limits assumed): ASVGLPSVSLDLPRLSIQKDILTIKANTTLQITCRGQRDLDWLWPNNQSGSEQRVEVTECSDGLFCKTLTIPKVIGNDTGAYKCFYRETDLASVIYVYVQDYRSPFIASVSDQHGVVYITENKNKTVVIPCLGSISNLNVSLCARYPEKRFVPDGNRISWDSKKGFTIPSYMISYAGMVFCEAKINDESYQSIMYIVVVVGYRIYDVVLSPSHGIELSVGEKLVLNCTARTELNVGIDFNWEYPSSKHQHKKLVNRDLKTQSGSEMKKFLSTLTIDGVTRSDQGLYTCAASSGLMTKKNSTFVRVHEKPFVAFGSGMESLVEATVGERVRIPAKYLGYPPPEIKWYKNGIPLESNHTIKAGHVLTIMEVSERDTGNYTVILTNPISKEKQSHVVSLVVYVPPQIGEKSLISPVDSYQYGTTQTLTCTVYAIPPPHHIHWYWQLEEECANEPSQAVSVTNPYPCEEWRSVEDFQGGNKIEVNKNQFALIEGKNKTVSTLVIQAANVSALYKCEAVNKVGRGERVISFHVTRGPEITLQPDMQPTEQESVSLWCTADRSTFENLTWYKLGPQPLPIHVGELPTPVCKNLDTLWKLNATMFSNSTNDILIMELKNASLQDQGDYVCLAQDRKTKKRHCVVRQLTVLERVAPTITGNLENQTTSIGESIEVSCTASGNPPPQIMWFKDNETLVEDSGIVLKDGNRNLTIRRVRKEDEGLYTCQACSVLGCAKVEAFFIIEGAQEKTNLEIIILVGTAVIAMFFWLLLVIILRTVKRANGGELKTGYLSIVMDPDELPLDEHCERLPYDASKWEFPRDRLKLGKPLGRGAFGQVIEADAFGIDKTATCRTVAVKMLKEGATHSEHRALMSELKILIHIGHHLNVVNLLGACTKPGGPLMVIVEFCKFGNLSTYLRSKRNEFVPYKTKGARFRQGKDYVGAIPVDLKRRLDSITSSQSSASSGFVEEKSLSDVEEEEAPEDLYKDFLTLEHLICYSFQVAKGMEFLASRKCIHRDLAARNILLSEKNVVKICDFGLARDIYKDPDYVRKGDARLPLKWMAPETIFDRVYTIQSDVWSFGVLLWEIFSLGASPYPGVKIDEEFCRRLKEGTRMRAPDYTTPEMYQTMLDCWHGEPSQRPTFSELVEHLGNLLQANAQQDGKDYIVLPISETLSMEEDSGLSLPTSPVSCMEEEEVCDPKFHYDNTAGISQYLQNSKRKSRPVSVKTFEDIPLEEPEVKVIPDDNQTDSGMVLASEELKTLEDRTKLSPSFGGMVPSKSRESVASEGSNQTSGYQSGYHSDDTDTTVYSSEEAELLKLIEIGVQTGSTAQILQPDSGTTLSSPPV
ProfilerPro Kinase Selectivity Assay Kit kinases (Homo sapiens, UniProt P06241), sequence (P06241 2-537 limits assumed): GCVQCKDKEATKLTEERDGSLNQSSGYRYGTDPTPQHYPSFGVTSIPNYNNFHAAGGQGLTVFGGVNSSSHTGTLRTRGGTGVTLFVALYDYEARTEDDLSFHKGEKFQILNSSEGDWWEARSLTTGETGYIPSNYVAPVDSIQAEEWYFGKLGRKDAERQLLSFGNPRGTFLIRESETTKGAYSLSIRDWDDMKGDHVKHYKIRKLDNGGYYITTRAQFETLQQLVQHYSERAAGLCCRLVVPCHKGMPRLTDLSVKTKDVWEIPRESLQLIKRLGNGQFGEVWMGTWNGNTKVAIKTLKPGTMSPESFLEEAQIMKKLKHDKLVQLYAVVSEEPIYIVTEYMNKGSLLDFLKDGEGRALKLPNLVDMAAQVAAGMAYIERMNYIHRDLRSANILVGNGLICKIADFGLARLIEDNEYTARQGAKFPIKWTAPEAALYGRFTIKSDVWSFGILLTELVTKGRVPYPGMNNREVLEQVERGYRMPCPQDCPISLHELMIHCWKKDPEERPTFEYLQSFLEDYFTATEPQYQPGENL
ProfilerPro Kinase Selectivity Assay Kit kinases (Homo sapiens, UniProt P27361), sequence (P27361 2-379 limits assumed): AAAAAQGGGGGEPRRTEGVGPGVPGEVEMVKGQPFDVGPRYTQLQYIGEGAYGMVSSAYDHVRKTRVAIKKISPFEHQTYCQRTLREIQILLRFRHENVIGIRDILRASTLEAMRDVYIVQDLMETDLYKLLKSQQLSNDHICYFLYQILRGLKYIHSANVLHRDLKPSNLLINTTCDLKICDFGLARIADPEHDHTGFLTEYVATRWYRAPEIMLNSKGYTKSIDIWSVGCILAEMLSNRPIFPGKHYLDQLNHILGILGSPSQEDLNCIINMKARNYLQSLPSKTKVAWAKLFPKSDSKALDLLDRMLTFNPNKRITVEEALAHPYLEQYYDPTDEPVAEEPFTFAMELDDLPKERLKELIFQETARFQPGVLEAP
ProfilerPro Kinase Selectivity Assay Kit kinases (Homo sapiens, UniProt P12931), sequence (P12931 2-536 limits assumed): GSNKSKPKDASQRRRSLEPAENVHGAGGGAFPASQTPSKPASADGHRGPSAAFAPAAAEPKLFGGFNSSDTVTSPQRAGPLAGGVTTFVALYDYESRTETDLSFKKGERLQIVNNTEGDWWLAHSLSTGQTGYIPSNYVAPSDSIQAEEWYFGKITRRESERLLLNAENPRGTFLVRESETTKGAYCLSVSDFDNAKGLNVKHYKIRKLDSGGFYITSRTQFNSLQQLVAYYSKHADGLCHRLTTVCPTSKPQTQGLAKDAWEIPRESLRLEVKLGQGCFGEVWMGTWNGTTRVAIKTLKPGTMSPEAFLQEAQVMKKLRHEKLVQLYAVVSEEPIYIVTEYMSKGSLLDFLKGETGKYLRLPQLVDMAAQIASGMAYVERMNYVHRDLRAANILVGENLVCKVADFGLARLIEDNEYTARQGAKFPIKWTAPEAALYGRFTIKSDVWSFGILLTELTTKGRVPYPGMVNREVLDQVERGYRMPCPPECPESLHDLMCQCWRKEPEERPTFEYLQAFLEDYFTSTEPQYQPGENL
ProfilerPro Kinase Selectivity Assay Kit kinases (Homo sapiens, UniProt P28482), sequence (P28482 2-360 limits assumed): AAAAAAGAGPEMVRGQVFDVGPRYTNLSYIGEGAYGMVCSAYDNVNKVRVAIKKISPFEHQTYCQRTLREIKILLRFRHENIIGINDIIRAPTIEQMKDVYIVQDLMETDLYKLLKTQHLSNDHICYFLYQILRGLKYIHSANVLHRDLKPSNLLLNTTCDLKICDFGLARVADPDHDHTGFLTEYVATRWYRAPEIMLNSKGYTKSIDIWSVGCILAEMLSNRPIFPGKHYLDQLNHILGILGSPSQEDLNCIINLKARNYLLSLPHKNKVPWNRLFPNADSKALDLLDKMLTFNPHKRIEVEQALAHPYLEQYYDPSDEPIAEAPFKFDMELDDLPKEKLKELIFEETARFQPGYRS

Cc1nc(-c2cccnc2Nc2cccc3[nH]ncc23)c2nc[nH]c2n1 [Example 57, N-(3-(2-methyl-9H-purin-6-yl)pyridin-2-yl)-1H-indazol-4-amine]
Mutant B-raf HTRF Assay POC Mean n = 2 [1]: 87% of Control (POC) | POC (Percent of control) FGFR1 [2]: 95 POC | POC (Percent of control) SYK [3]: 100 POC | POC (Percent of control) PKC zeta [4]: 100 POC | POC (Percent of control) MSK1 [5]: 101 POC | POC (Percent of control) PKA alpha [6]: 100 POC | POC (Percent of control) AURORA A [7]: 99 POC | POC (Percent of control) cRAF [8]: 100 POC | POC (Percent of control) PKD2 [9]: 97 POC | POC (Percent of control) HGK [10]: 93 POC | POC (Percent of control) ERK1 [11]: 100 POC | POC (Percent of control) LCK [12]: 96 POC | POC (Percent of control) KDR [13]: 90 POC | POC (Percent of control) SRC [14]: 93 POC | POC (Percent of control) FYN [15]: 103 POC | POC (Percent of control) LYN [16]: 95 POC | POC (Percent of control) MARK1 [17]: 99 POC | POC (Percent of control) p70S6K [18]: 94 POC | POC (Percent of control) BTK [19]: 98 POC | POC (Percent of control) ERK2 [20]: 97 POC | POC (Percent of control) PAK2 [21]: 95 POC | POC (Percent of control) PIM2 [22]: 94 POC | POC (Percent of control) CDK2 [23]: 95 POC | POC (Percent of control) SGK1 [24]: 92 POC | POC (Percent of control) CHK2 [25]: 98 POC | POC (Percent of control) AKT1 [26]: 102 POC | POC (Percent of control) FLT3 [27]: 92 POC | POC (Percent of control) ABL [28]: 94 POC | POC (Percent of control) CHK1 [29]: 106 POC | POC (Percent of control) IGF1R [30]: 77 POC | POC (Percent of control) PKGa2 [31]: 98 POC

Cc1nc(N)nc(-c2cccnc2Nc2cccc3[nH]ccc23)n1 [Example 22, N-(3-(4-Amino-6-Methyl-1,3,5-Triazin-2-yl)Pyridin-2-yl)-1H-Indol-4-Amine]
Mutant B-raf HTRF Assay POC Mean n = 2 [1]: 118% of Control (POC) | POC (Percent of control) FGFR1 [2]: 96 POC | POC (Percent of control) SYK [3]: 96 POC | POC (Percent of control) PKC zeta [4]: 98 POC | POC (Percent of control) MSK1 [5]: 103 POC | POC (Percent of control) PKA alpha [6]: 97 POC | POC (Percent of control) AURORA A [7]: 102 POC | POC (Percent of control) cRAF [8]: 98 POC | POC (Percent of control) PKD2 [9]: 99 POC | POC (Percent of control) HGK [10]: 97 POC | POC (Percent of control) ERK1 [11]: 99 POC | POC (Percent of control) LCK [12]: 97 POC | POC (Percent of control) KDR [13]: 106 POC | POC (Percent of control) SRC [14]: 101 POC | POC (Percent of control) FYN [15]: 103 POC | POC (Percent of control) LYN [16]: 108 POC | POC (Percent of control) MARK1 [17]: 109 POC | POC (Percent of control) p70S6K [18]: 74 POC | POC (Percent of control) BTK [19]: 99 POC | POC (Percent of control) ERK2 [20]: 103 POC | POC (Percent of control) PAK2 [21]: 99 POC | POC (Percent of control) PIM2 [22]: 97 POC | POC (Percent of control) CDK2 [23]: 107 POC | POC (Percent of control) SGK1 [24]: 99 POC | POC (Percent of control) CHK2 [25]: 102 POC | POC (Percent of control) AKT1 [26]: 102 POC | POC (Percent of control) FLT3 [27]: 105 POC | POC (Percent of control) ABL [28]: 103 POC | POC (Percent of control) CHK1 [29]: 103 POC | POC (Percent of control) IGF1R [30]: 97 POC | POC (Percent of control) PKGa2 [31]: 93 POC

COc1ccc(Nc2ncccc2-c2ncnc3[nH]cnc23)cn1 [Example 20, N-(6-Methoxypyridin-3-yl)-3-(9H-Purin-6-yl)Pyridin-2-Amine]
Mutant B-raf HTRF Assay POC Mean n = 2 [1]: 72% of Control (POC) | POC (Percent of control) FGFR1 [2]: 94 POC | POC (Percent of control) SYK [3]: 107 POC | POC (Percent of control) PKC zeta [4]: 99 POC | POC (Percent of control) MSK1 [5]: 93 POC | POC (Percent of control) PKA alpha [6]: 97 POC | POC (Percent of control) AURORA A [7]: 96 POC | POC (Percent of control) cRAF [8]: 59 POC | POC (Percent of control) PKD2 [9]: 100 POC | POC (Percent of control) HGK [10]: 94 POC | POC (Percent of control) ERK1 [11]: 96 POC | POC (Percent of control) LCK [12]: 101 POC | POC (Percent of control) KDR [13]: 93 POC | POC (Percent of control) SRC [14]: 95 POC | POC (Percent of control) FYN [15]: 101 POC | POC (Percent of control) LYN [16]: 92 POC | POC (Percent of control) MARK1 [17]: 108 POC | POC (Percent of control) p70S6K [18]: 104 POC | POC (Percent of control) BTK [19]: 98 POC | POC (Percent of control) ERK2 [20]: 101 POC | POC (Percent of control) PAK2 [21]: 103 POC | POC (Percent of control) PIM2 [22]: 105 POC | POC (Percent of control) CDK2 [23]: 96 POC | POC (Percent of control) SGK1 [24]: 95 POC | POC (Percent of control) CHK2 [25]: 103 POC | POC (Percent of control) AKT1 [26]: 105 POC | POC (Percent of control) FLT3 [27]: 120 POC | POC (Percent of control) ABL [28]: 99 POC | POC (Percent of control) CHK1 [29]: 104 POC | POC (Percent of control) IGF1R [30]: 93 POC | POC (Percent of control) PKGa2 [31]: 98 POC
